Experimental data from the NIST ThermoML archive (doi:10.1016/j.jct.2012.12.003).
“And” between values parts separate entries of the source, which are not always exact repeats. Identical values can stand only once.

Tests used:
[1] = 101.3 kPa, Liquid, Vibrating tube method
[2] = xn = mol fraction of the nth substance listed; conditions: 101.3 kPa, Liquid, Vibrating tube method

CC(O)CO (stereo not given) [1,2-propanediol]
[1]
Conditions | mass density
293.15 K | 1036.21 kg/m3 [middle of 4 runs]
298.15 K | 1032.55 kg/m3 [middle of 4 runs]
303.15 K | 1028.84 kg/m3 [middle of 4 runs]
308.15 K | 1025.09 kg/m3 and 1025.1 kg/m3 and 1025.05 kg/m3
313.15 K | 1021.28 kg/m3 and 1021.31 kg/m3
318.15 K | 1017.47 kg/m3 and 1017.49 kg/m3

CC(O)CO (stereo not given) [1,2-propanediol] + CCCCCCCCCO
[2], x1 = 1
Conditions | mass density [kg/m3]
293.15 K | 1036.17
298.15 K | 1032.52
303.15 K | 1028.83
308.15 K | 1025.09
313.15 K | 1021.31
318.15 K | 1017.49

CC(O)CO (stereo not given) [1,2-propanediol] + CCCCCCCCO
mass density [kg/m3], [2]
Conditions | x1 = 0.1028 | x1 = 0.1938 | x1 = 0.3029 | x1 = 0.3929 | x1 = 0.5181 | x1 = 0.6002 | x1 = 0.7012 | x1 = 0.8016 | x1 = 0.901 | x1 = 1
293.15 K | 834.904 | 844.743 | 858.314 | 871.118 | 892.06 | 908.213 | 931.472 | 959.327 | 993.344 | 1036.22
298.15 K | 831.409 | 841.209 | 854.74 | 867.513 | 888.414 | 904.545 | 927.781 | 955.627 | 989.648 | 1032.56
303.15 K | 827.891 | 837.652 | 851.144 | 863.884 | 884.743 | 900.85 | 924.062 | 951.891 | 985.914 | 1028.85
308.15 K | 824.351 | 834.08 | 847.528 | 860.235 | 881.051 | 897.13 | 920.315 | 948.124 | 982.15 | 1025.1
313.15 K | 820.793 | 830.481 | 843.885 | 856.562 | 877.332 | 893.39 | 916.543 | 944.333 | 978.349 | 1021.31
318.15 K | 817.208 | 826.859 | 840.223 | 852.864 | 873.592 | 889.619 | 912.743 | 940.506 | 974.513 | 1017.49

CC(O)CO (stereo not given) [1,2-propanediol] + CCCCCCO
mass density [kg/m3], [2]
Conditions | x1 = 0.1014 | x1 = 0.1998 | x1 = 0.2999 | x1 = 0.4003 | x1 = 0.4939 | x1 = 0.5996 | x1 = 0.6965 | x1 = 0.7989 | x1 = 0.9005 | x1 = 1
293.15 K | 831.496 | 845.231 | 860.667 | 877.818 | 895.533 | 917.945 | 941.028 | 968.795 | 1000.46 | 1036.21
298.15 K | 827.881 | 841.574 | 856.979 | 874.105 | 891.801 | 914.203 | 937.285 | 965.064 | 996.753 | 1032.55
303.15 K | 824.235 | 837.887 | 853.262 | 870.363 | 888.041 | 910.432 | 933.51 | 961.302 | 993.003 | 1028.84
308.15 K | 820.566 | 834.178 | 849.521 | 866.596 | 884.256 | 906.63 | 929.702 | 957.503 | 989.222 | 1025.09
313.15 K | 816.869 | 830.44 | 845.751 | 862.8 | 880.441 | 902.801 | 925.868 | 953.677 | 985.406 | 1021.31
318.15 K | 813.142 | 826.676 | 841.952 | 858.977 | 876.599 | 898.941 | 922.002 | 949.81 | 981.555 | 1017.49

CC(O)CO (stereo not given) [1,2-propanediol] + CCCO
mass density [kg/m3], [2]
Conditions | x1 = 0.1001 | x1 = 0.2 | x1 = 0.3001 | x1 = 0.3999 | x1 = 0.4999 | x1 = 0.6997 | x1 = 0.7998 | x1 = 0.9497 | x1 = 1
293.15 K | 827.101 | 850.504 | 873.567 | 897.361 | 920.615 | 967.056 | 990.126 | 1024.72 | 1036.13
298.15 K | 823.072 | 846.479 | 869.634 | 893.372 | 916.676 | 963.215 | 986.331 | 1021.04 | 1032.48
303.15 K | 819.008 | 842.415 | 865.603 | 889.385 | 912.697 | 959.329 | 982.502 | 1017.3 | 1028.78
308.15 K | 814.909 | 838.312 | 861.519 | 885.326 | 908.683 | 955.407 | 978.642 | 1013.52 | 1025.05
313.15 K | 810.77 | 834.174 | 857.399 | 881.264 | 904.631 | 951.451 | 974.743 | 1009.71 | 1021.28
318.15 K | 806.589 | 829.994 | 853.237 | 877.138 | 900.544 | 947.456 | 970.809 | 1005.86 | 1017.47

CC(O)CO (stereo not given) [1,2-propanediol] + CO
mass density [kg/m3], [2]
Conditions | x1 = 0.1008 | x1 = 0.1385 | x1 = 0.2582 | x1 = 0.3 | x1 = 0.4851 | x1 = 0.5476 | x1 = 0.6991 | x1 = 0.7595 | x1 = 0.8991 | x1 = 1
293.15 K | 838.277 | 853.548 | 895.155 | 908.078 | 954.527 | 967.74 | 995.074 | 1004.49 | 1024 | 1036.17
298.15 K | 833.79 | 849.127 | 890.917 | 903.893 | 950.534 | 963.799 | 991.242 | 1000.7 | 1020.29 | 1032.52
303.15 K | 829.274 | 844.68 | 886.644 | 899.676 | 946.507 | 959.825 | 987.37 | 996.862 | 1016.54 | 1028.83
308.15 K | 824.731 | 840.206 | 882.346 | 895.43 | 942.448 | 955.815 | 983.47 | 992.997 | 1012.75 | 1025.09
313.15 K | 820.164 | 835.7 | 878.013 | 891.151 | 938.356 | 951.772 | 979.532 | 989.094 | 1008.92 | 1021.31
318.15 K | 815.56 | 831.158 | 873.648 | 886.837 | 934.226 | 947.684 | 975.556 | 985.157 | 1005.05 | 1017.49

CCCCCCO [hexan-1-ol]
[1]
Conditions | mass density [kg/m3]
293.15 K | 818.749
298.15 K | 815.188
303.15 K | 811.6
308.15 K | 807.984
313.15 K | 804.339
318.15 K | 800.657

CCCCCCO [hexan-1-ol] + CC(O)CO
[2], x2 = 0
Conditions | mass density [kg/m3]
293.15 K | 818.749
298.15 K | 815.188
303.15 K | 811.6
308.15 K | 807.984
313.15 K | 804.339
318.15 K | 800.657

CO [methanol]
[1]
Conditions | mass density [kg/m3]
293.15 K | 791.494
298.15 K | 786.794
303.15 K | 782.071
308.15 K | 777.326
313.15 K | 772.55
318.15 K | 767.744

CO [methanol] + CC(O)CO
[2], x2 = 0
Conditions | mass density [kg/m3]
293.15 K | 791.494
298.15 K | 786.794
303.15 K | 782.071
308.15 K | 777.326
313.15 K | 772.55
318.15 K | 767.744

CCCCCCCCCO [nonan-1-ol]
[1]
Conditions | mass density [kg/m3]
293.15 K | 827.667
298.15 K | 824.254
303.15 K | 820.815
308.15 K | 817.362
313.15 K | 813.885
318.15 K | 810.385

CCCCCCCCCO [nonan-1-ol] + CC(O)CO
mass density [kg/m3], [2]
Conditions | x2 = 0 | x2 = 0.1056 | x2 = 0.225 | x2 = 0.3433 | x2 = 0.3773 | x2 = 0.5551 | x2 = 0.6746 | x2 = 0.7695 | x2 = 0.7978 | x2 = 0.899
293.15 K | 827.667 | 836.639 | 848.601 | 862.671 | 867.271 | 895.783 | 920.803 | 945.697 | 953.952 | 989.338
298.15 K | 824.254 | 833.182 | 845.095 | 859.126 | 863.71 | 892.163 | 917.143 | 942.013 | 950.266 | 985.641
303.15 K | 820.815 | 829.698 | 841.567 | 855.554 | 860.127 | 888.513 | 913.452 | 938.296 | 946.543 | 981.914
308.15 K | 817.362 | 826.204 | 838.022 | 851.964 | 856.523 | 884.841 | 909.736 | 934.554 | 942.791 | 978.153
313.15 K | 813.885 | 822.685 | 834.458 | 848.353 | 852.901 | 881.148 | 906.002 | 930.783 | 939.015 | 974.358
318.15 K | 810.385 | 819.146 | 830.872 | 844.72 | 849.257 | 877.428 | 902.236 | 926.985 | 935.207 | 970.53

CCCCCCCCO [octan-1-ol]
[1]
Conditions | mass density [kg/m3]
293.15 K | 825.093
298.15 K | 821.647
303.15 K | 818.177
308.15 K | 814.686
313.15 K | 811.171
318.15 K | 807.629

CCCCCCCCO [octan-1-ol] + CC(O)CO
[2], x2 = 0
Conditions | mass density [kg/m3]
293.15 K | 825.093
298.15 K | 821.647
303.15 K | 818.177
308.15 K | 814.686
313.15 K | 811.171
318.15 K | 807.629

CCCO [propan-1-ol]
[1]
Conditions | mass density [kg/m3]
293.15 K | 803.527
298.15 K | 799.528
303.15 K | 795.493
308.15 K | 791.426
313.15 K | 787.32
318.15 K | 783.164

CCCO [propan-1-ol] + CC(O)CO
[2], x2 = 0
Conditions | mass density [kg/m3]
293.15 K | 803.527
298.15 K | 799.528
303.15 K | 795.493
308.15 K | 791.426
313.15 K | 787.32
318.15 K | 783.164
